{"source": "patent US8591892B2", "about": "“FTY720 increases CD74 expression and sensitizes cancer cells to anti-CD74 antibody-mediated cell death” (The Ohio State University, priority 2011, dated 2013)", "molecules": {"B1": {"name": "IFN-γ: interferon-γ, agent inducing CD74 expression (protein, UniProt P01579 24-161, looked up)", "Interferon gamma": "QDPYVKEAENLKKYFNAGHSDVADNGTLFLGILKNWKEESDRKIMQSQIVSFYFKLFKNFKDDQSIQKSVETIKEDMNVKFFNSNKKKRDDFEKLTNYSVTDLNVQRKAIHELIQVMAELSPAAKTGKRKRSQMLFRG"}}, "key": {"[1]": {"settings": "in subjects; cited from earlier work"}, "Z-138": {"tested_on": "Z-138", "settings": "Z-138, single agent, previous dose titration; read-out: LC50 (the source's name); cited from earlier work"}, "Jeko-1": {"tested_on": "Jeko-1", "settings": "Jeko-1, single agent, previous dose titration; read-out: LC50 (the source's name); cited from earlier work"}, "[2]": {"settings": "single agents, same dosage and delivery schedule; cited from earlier work"}, "UPN-1": {"tested_on": "UPN-1", "settings": "UPN-1, single agent, previous dose titration; read-out: LC50 (the source's name); cited from earlier work"}, "[3]": {"tested_on": "primary tumor cells from MCL patients", "test": "Cell viability by annexin-V/PI staining and flow cytometry", "type": "cell-based, human", "settings": "six MCL patients, 24 hours; FTY720 2.5 μM, immobilized milatuzumab 5 μg/ml", "description": "FIG. 4. FTY720 sensitizes MCL cell lines and primary patient tumor cells to milatuzumab-mediated cytotoxicity. (A) Four MCL cell lines and primary cells from 6 patients were treated with FTY720 and/or milatuzumab plus cross-linking antibodies at the indicated concentrations. (B) Patient characteristics. (C) Individual patient responses. (D) Representative histograms summarizing patient responses. Cell death was determined by annexin V/PI staining and flow cytometry at 24 hours. Data are shown as the percentage of annexin V−/PI− cells (live cells) and are normalized to untreated controls.\nPrimary tumor cells were isolated from the peripheral blood/lymph nodes of patients with MCL. All patients studied were diagnosed with MCL according to the World Health Organization (WHO) classification of tumors (Swerdlow, 2008, World Health Organization Classification of Tumours of Haematopoetic and Lymphoid Tissues (ed 4th ed.) Lyon, France, International Agency on Research for Cancer). All samples contained at least 85% of CD19^+/CD20^+ B cells detected by flow cytometry. […]\nTo assess lysosomal volume, FTY720 treated cells were incubated with LYSOTRACKER™ green DND-26. […] Cell viability was measured at 24 hours by dual staining with annexin-V FITC and propidium iodide (PI). A total of 10,000 events were collected and analyzed using WinMDI. […]"}, "[4]": {"tested_on": "Jeko cells engrafted in SCID mice", "test": "Preclinical model of human MCL in SCID mice, survival", "type": "in vivo, mouse", "settings": "n=10/group, from day 15; FTY720 5 mg/kg i.p. daily 2 weeks; antibodies 15 mg/kg i.p. every three days", "procedure": "Evaluation of in vivo therapeutic activity of FTY720 and milatuzumab in the preclinical MCL model. SCID mice were injected i.v. with 40×10^6 JeKo cells and observed daily for signs of tumor burden.\nSix to eight-week old female SCID mice (cb17 scid/scid) were purchased from Taconic Farms (Hudson, N.Y.) and maintained in pathogen-free, isolation cages. All animals were depleted of murine NK cells with intra-peritoneal (i.p.) injections of 0.2 mg of rat anti-mouse interleukin-2 receptor β monoclonal antibody (TMβ1) 1 day prior to engraftment with human tumor cell lines and then every week. Forty-eight hours post intravenous injection of 40×10^6 Jeko cells via tail vein, 50 mice were randomly distributed into 10 cages. Animals in groups of ten were treated starting at day 15 after engraftment. […] The third group was treated with FTY720 (5 mg/kg) every day for 2 weeks via i.p. The fourth group received milatuzumab (15 mg/kg) every three days, via i.p. injection. The fifth group received the combination of FTY720 and milatuzumab. Animals were monitored daily for signs of tumor burden, including hind limb paralysis, respiratory distress, weight loss, ruffled coat, and distended abdomen. Body weight was measured weekly for the first 3 weeks and then daily. […]"}, "Mino": {"tested_on": "Mino", "settings": "single agent, previous dose titration, read-out: LC50 (the source's name); cited from earlier work"}, "[5]": {"settings": "rat, 4 mg/kg single IV dose; cited from earlier work"}, "[6]": {"tested_on": "HLA-DR and CD74 in cancer cell lines", "test": "Flow cytometry of antigen expression after IFN-γ, summary over the panel", "type": "cell-based", "settings": "two-day incubation with IFN-γ, Tables 4 and 5", "description": "We examined whether the ability of anti-CD74 MAbs to kill cancer cells can be increased by using IFN-γ as an inducer of antigen expression. Using a panel of diverse cancer cell lines (including NHL, MM, GBM, and pancreatic and colonic carcinomas), we examined IFN-γ-induced changes in surface and cytoplasmic CD74 expression. Sensitivity of the malignant cells to milatuzumab was assessed with and without IFN-γ by cytotoxicity assays.\nExpression of CD74, HLA-DR, and carcinoembryonic antigen (CEACAM5) was determined in untreated cells and cells exposed to 200 U of IFN-γ for 48 h by flow cytometry. Cells were stained with directly labeled MAbs in comparison to a directly labeled human IgG control. Antibodies were labeled using ALEXA FLUOR® 488 (Invitrogen, Carlsbad, Calif.). For determination of cytoplasmic antigen expression, cells were permeabilized prior to staining using the BD CYTOFIX/CYTOPERM™ kit (BD Biosciences, San Jose, Calif.).\nTwo-day incubation with IFN-γ increased surface and cytoplasmic expression of CD74 and HLA-DR (Table 4, Table 5). In all 4 colon cancer lines, IFN-γ increased cytoplasmic expression of both antigens, and surface expression of HLA-DR in ¾ and CD74 in 2/4 (Table 4, Table 5). Upregulation of HLA-DR and CD74 ranged from 23-3700% (Table 4, Table 5)."}, "[7]": {"tested_on": "CD74 in 3 human AML cell lines", "test": "Flow cytometry of CD74 with/without permeabilization and IFN-γ", "type": "cell-based", "settings": "3 AML lines, IFN-γ 40 and 200 U/mL", "description": "CD74 expression in bone marrow biopsy (BMB) specimens from non-M3 AML patients was evaluated by immunohistochemistry and, for 3 human AML cell lines, by flow cytometry, with/without permeabilization and with/without IFN-γ (40 and 200 U/mL). These cell lines were also tested in proliferation assays for responses to milatuzumab, with/without IFN-γ. In 13/14 BMB specimens, there was moderate to strong CD74 expression by leukemic blasts, which was mostly intracellular, usually with a perinuclear distribution (data not shown). […] IFN-γ induced intracellular CD74 in all 3 lines (from 85%-868%) (not shown)."}}}
{"molecule": "veltuzumab: humanized IgG1 antibody against CD20", "values": [{"measurement": "immunogenicity", "setting": "[1]", "value": "less immunogenic in subjects than rituximab"}]}
{"molecule": "CCCCCCCCc1ccc(CCC(N)(CO)CO)cc1", "note": "[FTY720, fingolimod]", "values": [{"measurement": "CC50", "setting": "Z-138", "value": 7.5, "unit": "µM"}, {"measurement": "CC50", "setting": "Jeko-1", "value": 12.5, "unit": "µM"}, {"measurement": "weight loss or other side effects", "setting": "[2]", "value": "did not cause any observed weight loss or other significant side effects"}, {"measurement": "CC50", "setting": "UPN-1", "value": 7.5, "unit": "µM"}, {"measurement": "average cell death", "setting": "[3]", "value": 47, "unit": "%"}, {"measurement": "median survival", "setting": "[4]", "value": 31, "unit": "days"}, {"measurement": "CC50", "setting": "Mino", "value": 7.5, "unit": "µM"}, {"measurement": "maximum plasma concentration", "setting": "[5]", "value": 3.5, "unit": "µM"}]}
{"molecule": "B1", "values": [{"measurement": "upregulation of HLA-DR and CD74", "setting": "[6]", "value": "23-3700%"}, {"measurement": "upregulation of surface CD74", "setting": "[7]", "value": "69-117%"}]}
